Results on 20 compounds are retold here after patent US20260265250A1, “3-[…] ACTIVATORS OF SEROTONIN RECEPTORS” (Atai Therapeutics, Inc., priority 2023, published 2026).

Molecules are shown by their SMILES. Counter-ions that a name gives are not always drawn.

The target of assay [1] is T1, 5-HT2A (Homo sapiens, UniProt P28223). Briefly: Calcium Mobilization Assay (Calcium No-WashPLUS, Gq, FLIPR). The assay is classed as cell-based. The following applies: read-out: 5-HT2A % activation @30 uM Ca++ Flux. The protocol: (§1) Compounds 1-18 were assessed for biological activity across a panel of 5-HT receptors including 5-HT2A, 5-HT2B, and 5-HT2C. Biased signaling was assessed by monitoring both intracellular Gq-mediated calcium release, as well as β-arrestin activation and recruitment to the GPCR. Table 2 is a summary of findings across these compounds and the 5-HT receptors tested. • (i) Arrestin Pathway Assay. The PathHunter® β-Arrestin assay monitors the activation of a GPCR in a homogenous, non-imaging assay format using a technology developed by DiscoverX called Enzyme Fragment Complementation (EFC) with β-galactosidase (β-Gal) as the functional reporter. […] EA is fused to β-Arrestin and PK is fused to the GPCR of interest. When the GPCR is activated and β-Arrestin is recruited to the receptor, ED and EA complementation occurs, restoring β-Gal activity which is measured using chemiluminescent PathHunter® Detection Reagents. PathHunter cell lines (DiscoveRx Eurofins) were expanded from freezer stocks according to standard procedures. Cells were seeded in a total volume of 20 μL into white walled, 384-well microplates and incubated at 37° C. for the appropriate time prior to testing. For agonist determination, cells were incubated with sample to induce response. Intermediate dilution of sample stocks was performed to generate 5× sample in assay buffer. 5 μL of 5× sample was added to cells and incubated at 37° C. or room temperature for 90 to 180 minutes. Vehicle concentration was 1%. β-Arrestin assay signal was generated through a single addition of 12.5 or 15 μL (50% v/v) of PathHunter Detection reagent cocktail, followed by a one-hour incubation at room temperature. Microplates were read following signal generation with a PerkinElmer Envision™ instrument for chemiluminescent signal detection. Compound activity was analyzed using CBIS data analysis suite (ChemInnovation, CA). For agonist mode assays, percentage activity was calculated using the following formula: % Activity=100%×(mean RLU of test sample-mean RLU of vehicle control)/(mean MAX control ligand−mean RLU of vehicle control). In these studies, the MAX control ligand response was generated using 10 mM serotonin. • (ii) Calcium Mobilization Assay. The Calcium No-WashPLUS assay monitors the activation of a GPCR via Gq secondary messenger signaling in a live cell, non-imaging assay format. Calcium mobilization in PathHunter® cell lines or other cell lines stably expressing Gq-coupled GPCRs is monitored using a calcium-sensitive dye that is loaded into cells. GPCR activation by a compound result in the release of calcium from intracellular stores and an increase in dye fluorescence that is measured in real-time. Cell lines expressing the GPCR of interest were expanded from freezer stocks according to standard procedures. Cells were seeded in a total volume of 20 μL into black-walled, clear-bottom, Poly-D-lysine coated 384-well microplates and incubated at 37° C. for the appropriate time prior to testing. Assays were performed in 1× Dye Loading Buffer consisting of 1× Dye, 1× Additive A and 2.5 mM Probenecid in HBSS/20 mM Hepes. Probenicid was prepared fresh. Cells were loaded with dye prior to testing. Media was aspirated from cells and replaced with 20 μL Dye Loading Buffer. Cells were incubated for 30-60 minutes at 37° C. For agonist determination, cells were incubated with sample to induce response. After dye loading, cells were removed from the incubator and 10 μL HBSS/20 mM Hepes was added. 3× vehicle was included in the buffer when performing agonist dose curves to define the EC80 for subsequent antagonist assays. Cells were incubated for 30 minutes at room temperature in the dark to equilibrate plate temperature. Intermediate dilution of sample stocks was performed to generate 4× sample in assay buffer. Compound agonist activity was measured on a FLIPR Tetra (MDS). Calcium mobilization was monitored for 2 minutes and 10 μL 4× sample in HBSS/20 mM Hepes was added to the cells 5 seconds into the assay. […]
A general note: Calcium flux is commonly read through the fluorescence of an indicator in the cells.
Target sequence in this assay (P28223 whole entry, the tested form may be a part): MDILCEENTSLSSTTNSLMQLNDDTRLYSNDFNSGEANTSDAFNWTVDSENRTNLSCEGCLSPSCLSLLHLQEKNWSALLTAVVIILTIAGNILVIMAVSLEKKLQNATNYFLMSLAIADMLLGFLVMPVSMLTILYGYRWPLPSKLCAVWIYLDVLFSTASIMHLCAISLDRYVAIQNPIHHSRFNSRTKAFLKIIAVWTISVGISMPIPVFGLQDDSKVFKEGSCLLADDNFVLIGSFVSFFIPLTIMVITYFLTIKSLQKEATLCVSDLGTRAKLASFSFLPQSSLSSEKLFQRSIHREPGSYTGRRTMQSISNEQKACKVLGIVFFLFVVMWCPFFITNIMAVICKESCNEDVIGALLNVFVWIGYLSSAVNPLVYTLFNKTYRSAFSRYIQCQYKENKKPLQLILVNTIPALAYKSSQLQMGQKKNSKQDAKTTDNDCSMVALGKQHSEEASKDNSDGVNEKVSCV

The target of assay [2] is T1, 5-HT2A. Briefly: PathHunter β-Arrestin assay. It counts as cell-based. The method, then: as §1
Target sequence in this assay (P28223 whole entry, the tested form may be a part): as above
Target sequence in this assay (P32121 whole entry, further chain, the tested form may be a part): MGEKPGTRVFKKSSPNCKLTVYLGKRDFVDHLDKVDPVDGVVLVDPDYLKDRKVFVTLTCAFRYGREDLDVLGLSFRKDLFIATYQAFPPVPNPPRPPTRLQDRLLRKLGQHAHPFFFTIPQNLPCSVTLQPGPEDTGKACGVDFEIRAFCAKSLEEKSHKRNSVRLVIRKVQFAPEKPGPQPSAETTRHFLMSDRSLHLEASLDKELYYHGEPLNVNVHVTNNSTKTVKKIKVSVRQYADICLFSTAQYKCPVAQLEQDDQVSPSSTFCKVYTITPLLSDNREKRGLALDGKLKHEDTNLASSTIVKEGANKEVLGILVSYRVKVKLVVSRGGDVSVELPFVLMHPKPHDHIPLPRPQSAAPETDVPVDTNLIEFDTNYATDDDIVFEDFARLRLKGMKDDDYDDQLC
Assay [3] addresses T2, 5-HT2C (Homo sapiens, UniProt P28335).
T2 sequence (P28335 33-458): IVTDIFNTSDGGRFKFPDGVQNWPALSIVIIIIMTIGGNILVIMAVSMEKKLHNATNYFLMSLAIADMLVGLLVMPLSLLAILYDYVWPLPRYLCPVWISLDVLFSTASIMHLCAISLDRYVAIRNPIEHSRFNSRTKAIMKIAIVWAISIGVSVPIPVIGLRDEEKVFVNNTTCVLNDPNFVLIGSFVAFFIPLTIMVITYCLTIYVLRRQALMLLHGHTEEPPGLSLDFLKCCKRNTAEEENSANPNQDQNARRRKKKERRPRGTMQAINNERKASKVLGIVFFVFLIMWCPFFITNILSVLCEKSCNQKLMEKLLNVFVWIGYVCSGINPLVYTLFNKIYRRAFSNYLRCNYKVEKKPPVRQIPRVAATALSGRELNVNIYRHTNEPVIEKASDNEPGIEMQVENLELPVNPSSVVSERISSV
Briefly: 5-HT receptor panel, 5-HT2C agonist EC50 (readout not stated). The assay is classed as cell-based. The method, then:
as §1

In assay [4] the target is T1, 5-HT2A. The following applies: compared to reference LSD; cited from earlier work.
Target sequence in this assay (P28223 whole entry, the tested form may be a part): as the sequence (P28223 whole entry, the tested form may be a part) above
Assay [5] concerns 5-HT2A receptor. The following applies: cited from earlier work.
For assay [6], the system named is 5-HT2A receptor. The following applies: cited from earlier work. This is another data set of the same source.

The term EC50 denotes the concentration giving half of the maximal effect. Higher therefore signals lower potency in that assay. For `Cc1cc(Cl)cc(CNCCc2c[nH]c3ccccc23)c1` [Compound 1, N-(3-chloro-5-methylbenzyl)-2-(1H-indol-3-yl) ethan-1-amine], the activation at 30 µM in assay [1] was found to be 77.8%. In addition, the EC50 in assay [2] was determined as 4.5 nM; in assay [3], 28 nM.

As to `Cc1cc(Cl)cc(CNC(C)Cc2c[nH]c3ccccc23)c1` (stereo not drawn) [Compound 2, N-(3-chloro-5-methylbenzyl)-1-(1H-indol-3-yl) propan-2-amine], the activation at 30 µM in assay [1] came to 84.2%. Further, the EC50 was found to be 434 nM in assay [2] and 102 nM in assay [3].

`Cc1cc(Cl)cc(CNCc2c[nH]c3ccccc23)c1` [Compound 3, N-((1H-indol-3-yl)methyl)-1-(3-chloro-5-methylphenyl) methanamine hydrochloride]: the activation at 30 µM in assay [1] is 77.2%.

As to `COc1cc2c(CCNCc3cc(C)cc(Cl)c3)c[nH]c2cc1I` [Compound 4, N-(3-chloro-5-methylbenzyl)-2-(6-iodo-5-methoxy-1H-indol-3-yl) ethan-1-amine], in assay [1], the activation at 30 µM is 96.4%. In addition, the values for the EC50 in assay [2] and in assay [3] were 60 nM and 384 nM, respectively.

With `Cc1cc(Cl)cc(CNCCc2cn(C)c3ccccc23)c1` [Compound 5, N-(3-chloro-5-methylbenzyl)-2-(1-methyl-1H-indol-3-yl) ethan-1-amine], the activation at 30 µM in assay [1] is 112%. In addition, the EC50 in assay [2] is 17.5 nM; in assay [3], 116 nM.

For `Cc1cc(Cl)cc(CNC(C)Cc2cn(C)c3ccccc23)c1` (stereo not drawn) [Compound 6, N-(3-chloro-5-methylbenzyl)-1-(1-methyl-1H-indol-3-yl) propan-2-amine], the activation at 30 µM in assay [1] was determined as 110%.

As for `CCn1cc(CCNCc2cc(C)cc(Cl)c2)c2ccccc21` [Compound 7, N-(3-chloro-5-methylbenzyl)-2-(1-ethyl-1H-indol-3-yl) ethan-1-amine hydrochloride], the activation at 30 µM in assay [1] was 95.9%. The EC50 in assay [2] came to 17.2 nM; in assay [3], 4 nM.

As for `CCn1cc(CC(C)NCc2cc(C)cc(Cl)c2)c2ccccc21` (stereo not drawn) [Compound 8, N-(3-chloro-5-methylbenzyl)-1-(1-ethyl-1H-indol-3-yl) propan-2-amine], the activation at 30 µM in assay [1] was determined as 86.4%.

Regarding `Cc1cc(Cl)cc(CNCCc2c(C)[nH]c3ccccc23)c1` [Compound 9, N-(3-chloro-5-methylbenzyl)-2-(2-methyl-1H-indol-3-yl) ethan-1-amine hydrochloride], in assay [1], the activation at 30 µM was 88.9%. Besides, the values for the EC50 in assay [2] and in assay [3] were 15 nM and over 1000 nM, respectively.

In the case of `Cc1cc(F)cc(CNCCc2c[nH]c3ccccc23)c1` [Compound 10, N-(3-fluoro-5-methylbenzyl)-2-(1H-indol-3-yl) ethan-1-amine hydrochloride], the activation at 30 µM in assay [1] came out at 72.6%.

Turning to `Cc1cc(Cl)cc(CNCCc2nn(C)c3ccccc23)c1` [Compound 11, N-(3-chloro-5-methylbenzyl)-2-(1-methyl-1H-indazol-3-yl)-ethan-1-amine], the activation at 30 µM in assay [1] worked out at 79.1%.

In the case of `Cc1cc(Cl)cc(CNCCn2ncc3ccccc32)c1` [Compound 12, N-(3-chloro-5-methylbenzyl)-2-(1H-indazol-1-yl) ethan-1-amine hydrochloride], in assay [1], the activation at 30 µM stood at 69.8%.

Regarding `Cc1cc(Cl)cc(CNCCn2cnc3ccccc32)c1` [Compound 13, 2-(1H-benzo[d]imidazol-1-yl)-N-(3-chloro-5-methylbenzyl) ethan-1-amine hydrochloride], in assay [1], the activation at 30 µM was 43.5%.

As to `Cc1cc(Cl)cc(CNCCn2c(=O)oc3ccccc32)c1` [Compound 17, 3-(2-((3-chloro-5-methylbenzyl)amino)ethyl)benzo-[d]oxazol-2(3H)-one], in assay [1], the activation at 30 µM was -5.4%.

For `Cc1cc(Cl)cc(CN(C)CCc2c[nH]c3ccccc23)c1` [Compound 18], the activation at 30 µM in assay [1] worked out at 93.3%.

Consider `COc1ccc(OC)c(CCNCc2ccccc2F)c1` [Compound 25H-NBF], for which the “preference for recruitment of β-arrestin 2 over miniGaq” value (“preference … over miniGaq” below) in assay [4] is “statistically significant preference towards the recruitment of β-arrestin 2 over miniGaq”.

Take `COc1ccc(OC)c(CCNCc2cccc3c2OCO3)c1` [Compound 25H-NBMD]: the “preference … over miniGaq” value in assay [4] was “statistically significant preference towards the recruitment of β-arrestin 2 over miniGaq”.

Turning to `COc1ccc(OC)c(CCNCc2ccccc2O)c1` [Compound 25H-NBOH], in assay [4], the “preference … over miniGaq” value is “statistically significant preference towards the recruitment of β-arrestin 2 over miniGaq”.

On to `COc1ccc(OC)c(CCNCc2ccccc2OC)c1` [Compound 25H-NBOMe], for which, in assay [4], the “preference … over miniGaq” value is recorded as “statistically significant preference towards the recruitment of β-arrestin 2 over miniGaq”.

For the compound `CCN(CC)C(=O)[C@@H]1C=C2c3cccc4[nH]cc(c34)C[C@H]2N(C)C1` [LSD], in assay [5], the “expression of early growth response proteins (EGR1 and EGR2) via Gi/o subunits and SRC protein kinase” value was “stimulated the expression of early growth response proteins (EGR1 and EGR2)”. Further, in assay [6], the “activation of canonical Gq-based signaling downstream of 5-HT2A” value is given as “activate canonical Gq-based signaling downstream of 5-HT2A”.
